US8076487B2, “Pyridone derivative and herbicide” (Kumiai Chemical Industry Co., Ltd., priority 2006, dated 2011)

Legend:
Assay type in all cases: in vivo
[1] = system: barnyardgrass (Echinochloa crus-galli (L.) P. Beauv. var. crus-galli); experiment: Test Example 2: herbicidal effect by soil application to upland field; conditions: soil surface spray, upland field soil, 1,000 g active ingredient per hectare, 21st day after application
Method in brief: (§1)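 Soil surface treatment after sowing: wettable powder in water, 1,000 g a.i./ha, spray volume 1,000 L/ha. Greenhouse. Scored on a standard herbicidal scale at day 21.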

[2] = system: velvetleaf (Abutilon theophrasti medicus); experiment: as above; conditions: soil surface spray, upland field soil, 1,000 g active ingredient per hectare, 21st day after application
Method in brief: as §1

[3] = system: green foxtail (Setaria viridis (L.) P. Beauv.); experiment: as above; conditions: soil surface spray, upland field soil, 1,000 g active ingredient per hectare, 21st day after application
Method in brief: as §1

[4] = system: slender amaranth (Amaranthus viridis L.); experiment: as above; conditions: soil surface spray, upland field soil, 1,000 g active ingredient per hectare, 21st day after application
Method in brief: as §1

[5] = system: heartshape false pickerelweed (Monochoria vaginalis (Burm.f.) C.Presl); experiment: Test Example 1: herbicidal effect by soil application to paddy field; conditions: paddy field soil application; active ingredient 1,000 g per 1 hectare; wettable powder added dropwise to water surface the day after sowing; examined on the 21st day after application
Method in brief: (§2)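 Under greenhouse conditions, seeds sown on puddled paddy soil in 100 cm2 pots under 3 cm of standing water received the test compound; injury was assessed with a standard scoring scheme three weeks (day 21) after treatment.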

[6] = system: Japanese bulrush (Scirpus juncoides Roxb.); experiment: as above; conditions: paddy field soil application; active ingredient 1,000 g per 1 hectare; wettable powder added dropwise to water surface the day after sowing; examined on the 21st day after application
Method in brief: as §2

[7] = system: early watergrass (Echinochloa oryzicola Vasing); experiment: as above; conditions: paddy field soil application; active ingredient 1,000 g per 1 hectare; wettable powder added dropwise to water surface the day after sowing; examined on the 21st day after application
Method in brief: as §2

[8] = system: barnyardgrass (Echinochloa crus-galli (L.) P. Beauv. var. crus-galli); experiment: Test Example 3: herbicidal effect by application to upland field (foliage treatment); conditions: foliage treatment, 1,000 g active ingredient per 1 hectare, 14th day after application, greenhouse
Method in brief: (§3)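 Foliage treatment, greenhouse: 2-week-old plants in field soil; wettable powder in water sprayed over the top at 1,000 g a.i./ha (1,000 L/ha); rating on day 14 post-application.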

[9] = system: velvetleaf (Abutilon theophrasti medicus); experiment: as above; conditions: foliage treatment, 1,000 g active ingredient per 1 hectare, 14th day after application, greenhouse
Method in brief: as §3

[10] = system: green foxtail (Setaria viridis (L.) P. Beauv.); experiment: as above; conditions: foliage treatment, 1,000 g active ingredient per 1 hectare, 14th day after application, greenhouse
Method in brief: as §3

[11] = system: slender amaranth (Amaranthus viridis L.); experiment: as above; conditions: foliage treatment, 1,000 g active ingredient per 1 hectare, 14th day after application, greenhouse
Method in brief: as §3

SMILES | herbicidal effect (index), Barnyardgrass [1] | herbicidal effect (index), Velvetleaf [2] | herbicidal effect (index), Green Foxtail [3] | herbicidal effect (index), Slender Amaranth [4] | herbicidal effect, Monochoria vaginalis (Burm. f.) C. Presl [5] | herbicidal effect, Scirpus juncoides Roxb. [6] | herbicidal effect, Echinochloa oryzicola Vasing [7] | herbicidal effect, Barnyardgrass [8] | herbicidal effect, Velvetleaf [9] | herbicidal effect, Green Foxtail [10] | herbicidal effect, Slender Amaranth [11]
Cn1ncc(C(=O)c2ccc(C(F)(F)F)n(C)c2=O)c1OC(=O)c1ccc(C(C)(C)C)cc1 [IV-198] | 3 (50 to less than 70% of herbicidal effect and crop phytotoxicity) | 4 (70 to less than 90% of herbicidal effect and crop phytotoxicity) | 3 (50 to less than 70% of herbicidal effect and crop phytotoxicity) | 5 (90% or more of herbicidal effect and crop phytotoxicity) | 5 (90% or more of herbicidal effect and crop phytotoxicity) | 5 (90% or more of herbicidal effect and crop phytotoxicity) | 5 (90% or more of herbicidal effect and crop phytotoxicity) | 4 (70 to less than 90% of herbicidal effect and crop phytotoxicity) | 5 (90% or more of herbicidal effect and crop phytotoxicity) | 3 (50 to less than 70% of herbicidal effect and crop phytotoxicity) | 5 (90% or more of herbicidal effect and crop phytotoxicity)
O=C1CCCC(O)=C1C(=O)c1cc(Br)c(C(F)F)n(-c2ccccc2)c1=O [I-224] | 5 (90% or more of herbicidal effect and crop phytotoxicity) | 5 (90% or more of herbicidal effect and crop phytotoxicity) | 5 (90% or more of herbicidal effect and crop phytotoxicity) | 5 (90% or more of herbicidal effect and crop phytotoxicity) | 5 (90% or more of herbicidal effect and crop phytotoxicity) | 5 (90% or more of herbicidal effect and crop phytotoxicity) | 5 (90% or more of herbicidal effect and crop phytotoxicity) | 5 (90% or more of herbicidal effect and crop phytotoxicity) | 5 (90% or more of herbicidal effect and crop phytotoxicity) | 5 (90% or more of herbicidal effect and crop phytotoxicity) | 5 (90% or more of herbicidal effect and crop phytotoxicity)
COC(C)Cn1c(C(F)(F)F)ccc(C(=O)c2cnn(C)c2O)c1=O (centres unmarked) [IV-38] | 5 (90% or more of herbicidal effect and crop phytotoxicity) | 5 (90% or more of herbicidal effect and crop phytotoxicity) | 4 (70 to less than 90% of herbicidal effect and crop phytotoxicity) | 5 (90% or more of herbicidal effect and crop phytotoxicity) | 5 (90% or more of herbicidal effect and crop phytotoxicity) | 5 (90% or more of herbicidal effect and crop phytotoxicity) | 5 (90% or more of herbicidal effect and crop phytotoxicity) | 5 (90% or more of herbicidal effect and crop phytotoxicity) | 5 (90% or more of herbicidal effect and crop phytotoxicity) | 5 (90% or more of herbicidal effect and crop phytotoxicity) | 5 (90% or more of herbicidal effect and crop phytotoxicity)
N#Cc1ccc(Cn2c(C(F)(F)F)ccc(C(=O)C3=C(O)CCCC3=O)c2=O)cc1 [I-119] | 5 (90% or more of herbicidal effect and crop phytotoxicity) | 5 (90% or more of herbicidal effect and crop phytotoxicity) | 5 (90% or more of herbicidal effect and crop phytotoxicity) | 5 (90% or more of herbicidal effect and crop phytotoxicity) | 5 (90% or more of herbicidal effect and crop phytotoxicity) | 5 (90% or more of herbicidal effect and crop phytotoxicity) | 5 (90% or more of herbicidal effect and crop phytotoxicity) | 5 (90% or more of herbicidal effect and crop phytotoxicity) | 5 (90% or more of herbicidal effect and crop phytotoxicity) | 5 (90% or more of herbicidal effect and crop phytotoxicity) | 5 (90% or more of herbicidal effect and crop phytotoxicity)
Cn1ncc(C(=O)c2ccc(C(F)(F)F)n(C3CC3)c2=O)c1O [IV-18] | 5 (90% or more of herbicidal effect and crop phytotoxicity) | 5 (90% or more of herbicidal effect and crop phytotoxicity) | 5 (90% or more of herbicidal effect and crop phytotoxicity) | 5 (90% or more of herbicidal effect and crop phytotoxicity) | 5 (90% or more of herbicidal effect and crop phytotoxicity) | 5 (90% or more of herbicidal effect and crop phytotoxicity) | 5 (90% or more of herbicidal effect and crop phytotoxicity) | 5 (90% or more of herbicidal effect and crop phytotoxicity) | 5 (90% or more of herbicidal effect and crop phytotoxicity) | 5 (90% or more of herbicidal effect and crop phytotoxicity) | 5 (90% or more of herbicidal effect and crop phytotoxicity)
O=C1CCCC(O)=C1C(=O)c1ccc(C(F)(F)F)n(N2CCOCC2)c1=O [I-178] | 5 (90% or more of herbicidal effect and crop phytotoxicity) | 5 (90% or more of herbicidal effect and crop phytotoxicity) | 5 (90% or more of herbicidal effect and crop phytotoxicity) | 5 (90% or more of herbicidal effect and crop phytotoxicity) | 5 (90% or more of herbicidal effect and crop phytotoxicity) | 5 (90% or more of herbicidal effect and crop phytotoxicity) | 5 (90% or more of herbicidal effect and crop phytotoxicity) | 5 (90% or more of herbicidal effect and crop phytotoxicity) | 5 (90% or more of herbicidal effect and crop phytotoxicity) | 5 (90% or more of herbicidal effect and crop phytotoxicity) | 5 (90% or more of herbicidal effect and crop phytotoxicity)
CCCn1c(C(F)(F)F)ccc(C(=O)c2cnn(CC)c2OS(=O)(=O)CCC)c1=O [IV-202] | 5 (90% or more of herbicidal effect and crop phytotoxicity) | 5 (90% or more of herbicidal effect and crop phytotoxicity) | 5 (90% or more of herbicidal effect and crop phytotoxicity) | 5 (90% or more of herbicidal effect and crop phytotoxicity) | 5 (90% or more of herbicidal effect and crop phytotoxicity) | 5 (90% or more of herbicidal effect and crop phytotoxicity) | 5 (90% or more of herbicidal effect and crop phytotoxicity) | 5 (90% or more of herbicidal effect and crop phytotoxicity) | 5 (90% or more of herbicidal effect and crop phytotoxicity) | 5 (90% or more of herbicidal effect and crop phytotoxicity) | 5 (90% or more of herbicidal effect and crop phytotoxicity)
